Results reported in patent US5158950A, “1,3-dithiol-2-ylidene derivatives and process for the preparation thereof” (Yuhan Corporation, Ltd., priority 1987, dated 1992).

Tests used:
[1] = test system: serum ALT activity induced by CCl4; experiment: Protective effect against acute hepatic damage induced by carbon tetrachloride (serum ALT); type: in vivo; conditions: Mus musculus; mice, 50 mg/kg oral, 6 h before CCl4 (50 ul/kg oral); ALT 24 h after CCl4; read-out: Inhibitory (%): protective effect against increase of serum ALT activity induced by CCl4
Method: Principle; Carbon tetrachloride (CCl4) is a well-known hepatotoxic agent, thus widely used to produce experimental animal models for screening the potential drugs acting upon hepatic diseases. In this experiment test compounds were administered to mice prior to treatment with CCl4. 24 Hours after the CCl4 treatment, the animals were sacrificed and serum alanine aminotransferase (ALT) levels were determined. The hepatoprotective effect of a test compound was evaluated by the suppressive action against the increase of serum ALT induced by CCl4.
Method; The experimental animals were divided into normal, CCl4 treated and test compound treated groups. Each group consisted of 8 mice with body weight of 20-25 grams. The test compounds were suspended in 0.2% sodium carboxy methyl cellulose (CMC-Na) solution and administered orally at the dose of 50 mg/125 ml/kg body weight. Only the vehicle, 0.2% CMC-Na solution, was administered to the normal and to the CCl4 treated group instead of the test compound suspension. 6 Hours after the drug administration, the CCl4 solution in olive oil was administered orally to the CCl4 treated- and the test compound treated group at the dose of 50 ul/25 ml olive oil/kg body weight. The normal group was administered olive oil only at the same dose. 24 Hours after the CCl4 administration, blood samples were collected from the orbital sinus of the animals and the sera were obtained by centrifugation The serum ALT activities were monitored using an automatic blood analyzer (Gilford, SBA 300). The hepatoprotective effect of the test compounds was expressed by the suppressive percentage against the increase of serum ALT level induced by CCl4 calculated by the following formula; [formula]

[2] = Acute oral toxicity, median lethal dose (LD50); conditions: mouse, in vivo, male ICR mice, deaths counted for 14 days
Method: Each test compound was suspended in a 0.2% CMC-Na solution in various concentrations to make test suspension. The test suspensions were administered orally to male ICR mice (10 in each group) at various doses. The number of dead mice was counted for 14 days and the value of mediam lethal dose (LD50, g/kg) was calculated by the Hitchifield-Wilcoxon method.

SMILES | inhibition in vivo at 50 mg/kg [1] | LD50 at 336 h [2]
Cc1ccc(NC(=O)C(C(=O)OC(C)C)=C2SC=CS2)cc1 [17(e), Isopropyl 2-(1,3-dithiol-2-ylidene)-2-[N-(4-methylphenyl)carbamoyl]acetate] | 100% | 
Cc1cccc(NC(=O)C(C(=O)OC(C)C)=C2SC=CS2)c1C [17(f), Isopropyl 2-(1,3-dithiol-2-ylidene)-2-[N-(2,3-dimethylphenyl)carbamoyl]acetate] | 92% | 
CC(C)OC(=O)C(C(=O)Nc1ccc(Cl)cc1)=C1SC=CS1 [17(g), Isopropyl 2-(1,3-dithiol-2-ylidene)-2-[N-(4-chlorophenyl)carbamoyl]acetate] | 81.5% | > 5000 mg/kg
CC(C)OC(=O)C(C(=O)Nc1cccc(Cl)c1)=C1SC=CS1 [17(h), Isopropyl 2-(1,3-dithiol-2-ylidene)-2-[N-(3-chlorophenyl)carbamoyl]acetate] | 97.5% | > 5000 mg/kg
CC(C)OC(=O)C(C(=O)Nc1ccc(F)cc1)=C1SC=CS1 [17(i), Isopropyl 2-(1,3-dithiol-2-ylidene)-2-[N-(4-fluorophenyl)carbamoyl]acetate] | 89.8% | > 5000 mg/kg
CC(C)OC(=O)C(C(=O)Nc1ccccc1F)=C1SC=CS1 [17(j), Isopropyl 2-(1,3-dithiol-2-ylidene)-2-[N-(2-fluorophenyl)carbamoyl]acetate] |  | > 5000 mg/kg
COc1ccc(NC(=O)C(C(=O)OC(C)C)=C2SC=CS2)cc1 [17(l), Isopropyl 2-(1,3-dithiol-2-ylidene)-2-[N-(4-methoxyphenyl)carbamoyl]acetate] | 99.6% | > 5000 mg/kg
CC(=O)Nc1ccc(NC(=O)C(C(=O)OC(C)C)=C2SC=CS2)cc1 [17(q), Isopropyl 2-(1,3-dithiol-2-ylidene)-2-[N-(4-acetamidophenyl)carbamoyl]acetate] | 78.2% | > 5000 mg/kg
CC(=O)Nc1cccc(NC(=O)C(C(=O)OC(C)C)=C2SC=CS2)c1 [17(r), Isopropyl 2-(1,3-dithiol-2-ylidene)-2-[N-(3-acetamidophenyl)carbamoyl]acetate] | 46.6% | 
CC(C)OC(=O)C(C(=O)Nc1ccc(C(F)(F)F)cc1)=C1SC=CS1 [17(s), Isopropyl 2-(1,3-dithiol-2-ylidene)-2-[N-(4-trifluoromethylphenyl)carbamoyl]acetate] | 100% | > 4000 mg/kg
CC(C)OC(=O)C(C(=O)Nc1cccc(C(F)(F)F)c1)=C1SC=CS1 [17(t), Isopropyl 2-(1,3-dithiol-2-ylidene)-2-[N-(3-trifluoromethylphenyl)carbamoyl]acetate] | 96% | 
CC(C)OC(=O)C(C(=O)Nc1ccnc(O)n1)=C1SC=CS1 [18(m)] | 12.8% | > 5000 mg/kg
CC(C)OC(=O)C(C(=O)Nc1nc2ccccc2s1)=C1SC=CS1 [18(n), Isopropyl 2-(1,3-dithiol-2-ylidene)-2-[N-(2-benzothiazolyl)carbamoyl]acetate] | 15.2% | > 5000 mg/kg
Cc1nc(NC(=O)C(C(=O)OC(C)C)=C2SC=CS2)sc1C [19(f), Isopropyl 2-(1,3-dithiol-2-ylidene)-2-[N-(4,5-dimethyl-2-thiazolyl)carbamoyl]acetate] | 91.4% | > 5000 mg/kg
CC(C)OC(=O)C(C(=O)Nc1ncccn1)=C1SC=CS1 [21(d), Isopropyl 2-1,3-dithiol-2-ylidene)-2-(N-pyrimidin-2-ylcarbamoyl) acetate] | 99.8% | 3200 mg/kg
CC(C)OC(=O)C(C(=O)Nc1cccc(O)c1)=C1SC=CS1 [22(c), Isopropyl 2-(1,3-dithiol-2-ylidene)-2-[N-(3-hydroxyphenyl)carbamoyl]acetate] | 93% | > 5000 mg/kg
CC(C)OC(=O)C(C(=O)Nc1ccccc1O)=C1SC=CS1 [22(d), Isopropyl 2-(1,3-dithiol-2-ylidene)-2-[N-(2-hydroxyphenyl)carbamoyl]acetate] | 16.2% | 

SMILES | inhibition in vivo at 50 mg/kg [1] | LD50 at 336 h [2]
CC(C)OC(=O)C(C(=O)NC1=NCCS1)=C1SC=CS1 [22(e), Isopropyl 2-(1,3-dithiol-2-ylidene)-2-[N-(2-thiazolin-2-yl)carbamoyl]acetate] | 99.4% | > 5000 mg/kg
CC(=O)Oc1ccc(NC(=O)C(C(=O)OC(C)C)=C2SC=CS2)cc1 [24(a), Isopropyl 2-(1,3-dithiol-2-ylidene)-2-[N-(4-acetoxyphenyl)carbamoyl]acetate] | 102% | 
CC(=O)Oc1cccc(NC(=O)C(C(=O)OC(C)C)=C2SC=CS2)c1 [24(b)] | 98% | > 5000 mg/kg
CC(=O)Oc1ccccc1NC(=O)C(C(=O)OC(C)C)=C1SC=CS1 [24(c), Isopropyl 2-(1,3-dithiol-2ylidene)-2-[N-(2-acetoxyphenyl)carbamoyl]acetate] | 22.8% | 
CC(C)OC(=O)C(C(=O)Nc1ccccc1C(=O)O)=C1SC=CS1 [25(a), Isopropyl 2-(1,3-dithiol-2-ylidene)-2-[N-(2-carboxyphenyl)carbamoyl]acetate] | 74% | 1200 mg/kg
CC(C)OC(=O)C(C(=O)N1CCOCC1)=C1SC=CS1 [26(a), Isopropyl 2-(1,3-dithiol-2-ylidene)-2-(4-morpholinylcarbonyl)acetate] | 66.5% | 
CC(C)OC(=O)C(C(=O)N1CCN(C)CC1)=C1SC=CS1 [26(b), Isopropyl 2-(1,3-dithiol-2-ylidene)-2-[(4-methylpiperazin-1-yl)carbonyl]acetate] | 46% | 
CC(C)OC(=O)C(C(=O)N1CCCC1)=C1SC=CS1 [26(c), Isopropyl 2-(1,3-dithiol-2-ylidene)-2-(1-pryrrolidinylcarbaonyl) acetate] | 90.5% | 
CC(C)OC(=O)C(C(=O)n1ccnc1)=C1SC=CS1 [26(d), Isopropyl 2-(1,3-dithiol-2-ylidene)-2-(1-imidazolylcarbaony)acetate] | 98% | 
CC(C)OC(=O)C(C(N)=O)=C1SC=CS1 [Example 9, Isopropyl 2-(1,3-dithiol-2-ylidene)-2-carbamoylacetate] | 65.5% | 
CNC(=O)C(C(=O)OC(C)C)=C1SC=CS1 [Example 10, Isopropyl 2-(1,3-dithiol-2-ylidene)-2-(N-methylcarbamoyl) acetate] | 92% | 
CC(C)NC(=O)C(C(=O)OC(C)C)=C1SC=CS1 [Example 11, Isopropyl 2-(1,3-dithiol-2-ylidene)-2-(N-isopropylcarbamoyl)acetate] | 49.4% | 2600 mg/kg
CC(C)OC(=O)C(C(=O)NC1CCCCC1)=C1SC=CS1 [Example 12, Isopropyl 2-(1,3-dithiol-2-ylidene)-2-(N-cyclohexylcarbamoyl)acetate] | 98% | 
CCN(CC)C(=O)C(C(=O)OC(C)C)=C1SC=CS1 [Example 13, Isopropyl 2-(1,3-dithiol-2-ylidene)-2-(N,N-diethylcarbamoyl) acetate] | 55.6% | 
CC(C)OC(=O)C(C(=O)N1CCCC1C(=O)O)=C1SC=CS1 (stereo not shown) [Example 15, Isopropyl 2-(1,3-dithiol-2-ylidene)-2-[(2-carboxypyrrolidin-1-yl)carbonyl]acetate] | 14% | 
CC(C)OC(=O)C(C(=O)N(C)c1ccccc1)=C1SC=CS1 [Example 16, Isopropyl 2-(1,3-dithiol-2-ylidene)-2-(N-methyl-N-phenylcarbamoyl)acetate] | 47.9% | 
COc1cccc(NC(=O)C(C(=O)OC(C)C)=C2SC=CS2)c1 [Example 17(o), isopropyl 2-(1,3-dithiol-2-ylidene)-2-[N-(3-methoxyphenyl)carbamoyl]acetate] | 100% | 
